{
  "source": "patent US9221822B2",
  "about": "“Thiazolopyrimidine modulators as immunosuppressive agents” (Katholieke Universiteit Leuven, K.U.Leuven R&D, priority 2009, dated 2015)",
  "test_system": "Human peripheral blood mononuclear cells (PBMCs) as Responder cells, RPMI 1788 Stimulator cells",
  "experiment": "Mixed Lymphocyte Reaction (MLR) test",
  "format": "cell-based",
  "details": "6 days coculture, 3H-thymidine incorporation",
  "procedure,_shortened": "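Proliferation was read as cpm after a 1 μCi ^3H-thymidine pulse on day 5 and harvest 18 h later, then expressed as % inhibition relative to an MLR without compound. The 6-day triplicate cocultures combined 0.12×10^6 Ficoll-isolated human PBMCs with 0.045×10^6 mitomycin C-inactivated RPMI 1788 cells in RPMI 1640 with 10% FCS.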",
  "key": {"[1]": {"details": "Homo sapiens, RPMI-1788, lowest concentration giving 50% inhibition of the MLR"}, "[2]": {"details": "lowest concentration giving 50% inhibition of the MLR"}},
  "data": [
    {"smiles": "Nc1nc(N2CCN(C(=O)CCc3ccc(F)cc3)CC2)c2nc(-c3ccc(F)cc3)sc2n1", "note": "[Example 236, 1-(4-(5-amino-2-(4-fluorophenyl)thiazolo[5,4-d]pyrimidin-7-yl)piperazin-1-yl)-3-(4-fluorophenyl)propan-1-one]", "values": [
      {"measurement": "IC50", "setting": "[1]", "result": 890, "unit": "nM"}
    ]},
    {"smiles": "Nc1nc(N2CCN(C(=O)COc3ccc(Cl)cc3)CC2)c2nc(-c3ccccn3)sc2n1", "note": "[Example 282, 1-(4-(5-amino-2-(pyridin-2-yl)thiazolo[5,4-d]pyrimidin-7-yl)piperazin-1-yl)-2-(4-chlorophenoxy)ethanone]", "values": [
      {"measurement": "IC50", "setting": "[1]", "result": 229, "unit": "nM"}
    ]},
    {"smiles": "Nc1nc(N2CCN(C(=O)COc3cccc(Cl)c3)CC2)c2nc(-c3ccc(F)cc3)sc2n1", "note": "[Example 214, 1-(4-(5-amino-2-(4-fluorophenyl)thiazolo[5,4-d]pyrimidin-7-yl)piperazin-1-yl)-2-(3-chlorophenoxy)ethanone]", "values": [
      {"measurement": "IC50", "setting": "[1]", "result": 121, "unit": "nM"}
    ]},
    {"smiles": "Nc1nc(N2CCN(C(=O)c3cccc4ccccc34)CC2)c2nc(-c3ccc(F)cc3)[nH]c2n1", "note": "[Example 406, (4-(2-amino-8-(4-fluorophenyl)-9H-purin-6-yl)piperazin-1-yl)(naphthalen-1-yl)methanone]", "values": [
      {"measurement": "IC50", "setting": "[1]", "result": 6400, "unit": "nM"}
    ]},
    {"smiles": "Nc1nc(N2CCN(C(=O)COc3ccc(Cl)cc3)CC2)c2nc(C3CC3)oc2n1", "note": "[Example 185, 5-amino-2-cyclopropyl-7-[4-(4-chlorophenoxyacetyl)piperazin-1-yl]-oxazolo[5,4-d]pyrimidine]", "values": [
      {"measurement": "IC50", "setting": "[1]", "result": 1760, "unit": "nM"}
    ]},
    {"smiles": "Nc1nc(N2CCN(CC(=O)Nc3cccnc3)CC2)c2nc(-c3ccc(F)cc3)[nH]c2n1", "note": "[Example 412, 2-(4-(2-amino-8-(4-fluorophenyl)-9H-purin-6-yl)piperazin-1-yl)-N-(pyridin-3-yl)acetamide]", "values": [
      {"measurement": "IC50", "setting": "[1]", "result": 8610, "unit": "nM"}
    ]},
    {"smiles": "Nc1nc(N2CCN(C(=O)COc3ccccc3)CC2)c2nc(CCc3ccc(F)cc3)sc2n1", "note": "[Example 134, 5-amino-2-[2-(4-fluorophenyl)ethyl]-7-(4-[2-phenoxyacetyl]piperazin-1-yl)-thiazolo[5,4-d]pyrimidine]", "values": [
      {"measurement": "IC50", "setting": "[1]", "result": 4920, "unit": "nM"}
    ]},
    {"smiles": "Nc1nc(N2CCN(C(=O)CCc3ccccc3)CC2)c2nc(CCc3ccc(F)cc3)sc2n1", "note": "[Example 136, 5-amino-2-[2-(4-fluorophenyl)ethyl]-7-[4-(3-phenylpropionyl)piperazin-1-yl]-thiazolo[5,4-d]pyrimidine]", "values": [
      {"measurement": "IC50", "setting": "[1]", "result": "> 10000", "unit": "nM"}
    ]},
    {"smiles": "Nc1nc(N2CCN(c3ccncc3)CC2)c2nc(-c3ccc(F)cc3)[nH]c2n1", "note": "[Example 419]", "values": [
      {"measurement": "IC50", "setting": "[2]", "result": "> 10000", "unit": "nM"}
    ]},
    {"smiles": "Nc1nc(N2CCN(C(=O)COc3ccccc3)CC2)c2nc(-c3ccc(F)cc3)[nH]c2n1", "note": "[Example 401, 1-(4-(2-amino-8-(4-fluorophenyl)-9H-purin-6-yl)piperazin-1-yl)-2-phenoxyethanone]", "values": [
      {"measurement": "IC50", "setting": "[1]", "result": 1090, "unit": "nM"}
    ]},
    {"smiles": "Nc1nc(N2CCN(C(=O)COc3ccc(Cl)cc3)CC2)c2nc(-c3ccc(F)cc3)oc2n1", "note": "[Example 169, 1-(4-(5-amino-2-(4-fluorophenyl)oxazolo[5,4-d]pyrimidin-7-yl)piperazin-1-yl)-2-(4-chlorophenoxy)ethanone]", "values": [
      {"measurement": "IC50", "setting": "[1]", "result": 3000, "unit": "nM"}
    ]},
    {"smiles": "COc1ccc(OCC(=O)N2CCN(c3nc(N)nc4sc(-c5ccc(C)cc5)nc34)CC2)cc1", "note": "[Example 294, 1-(4-(5-amino-2-p-tolylthiazolo[5,4-d]pyrimidin-7-yl)piperazin-1-yl)-2-(4-methoxyphenoxy)ethanone]", "values": [
      {"measurement": "IC50", "setting": "[1]", "result": 750, "unit": "nM"}
    ]},
    {"smiles": "COc1ccc(OCC(=O)N2CCN(c3nc(N)nc4sc(-c5ccc(Cl)cc5)nc34)CC2)cc1", "note": "[Example 270, 1-(4-(5-amino-2-(4-chlorophenyl)thiazolo[5,4-d]pyrimidin-7-yl)piperazin-1-yl)-2-(4-methoxyphenoxy)ethanone]", "values": [
      {"measurement": "IC50", "setting": "[2]", "result": 150, "unit": "nM"}
    ]},
    {"smiles": "Nc1nc(N2CCN(C(=O)COc3ccc(Cl)cc3)CC2)c2nc(-c3ccc(OC(F)(F)F)cc3)[nH]c2n1", "note": "[Example 395, 1-(4-(2-amino-8-(4-(trifluoromethoxy)phenyl)-9H-purin-6-yl)piperazin-1-yl)-2-(4-chlorophenoxy)ethanone]", "values": [
      {"measurement": "IC50", "setting": "[1]", "result": "> 10000", "unit": "nM"}
    ]},
    {"smiles": "Nc1nc(N2CCN(CC(=O)Nc3ccccn3)CC2)c2nc(-c3ccc(F)cc3)[nH]c2n1", "note": "[Example 416, 2-(4-(2-amino-8-(4-fluorophenyl)-9H-purin-6-yl)piperazin-1-yl)-N-(pyridin-2-yl)acetamide]", "values": [
      {"measurement": "IC50", "setting": "[1]", "result": 5760, "unit": "nM"}
    ]},
    {"smiles": "COc1ccc(OCC(=O)N2CCN(c3nc(N)nc4sc(Cc5ccc(F)cc5)nc34)CC2)cc1", "note": "[Example 230, 1-(4-(5-amino-2-(4-fluorobenzyl)thiazolo[5,4-d]pyrimidin-7-yl)piperazin-1-yl)-2-(4-methoxyphenoxy)ethanone]", "values": [
      {"measurement": "IC50", "setting": "[1]", "result": 270, "unit": "nM"}
    ]},
    {"smiles": "Nc1nc(N2CCCN(C(=O)COc3ccc(Cl)cc3)CC2)c2nc(-c3ccc(F)cc3)[nH]c2n1", "note": "[Example 421, 1-(4-(2-amino-8-(4-fluorophenyl)-9H-purin-6-yl)-1,4-diazepan-1-yl)-2-(4-chlorophenoxy)ethanone]", "values": [
      {"measurement": "IC50", "setting": "[1]", "result": 3710, "unit": "nM"}
    ]},
    {"smiles": "Nc1nc(NCc2ccccc2)c2cc(-c3ccc(F)cc3)sc2n1", "note": "[Example 327, 2-amino-4-N-benzylamino-6-(4-fluorophenyl)-thieno[2,3-d]pyrimidine]", "values": [
      {"measurement": "IC50", "setting": "[2]", "result": 6800, "unit": "nM"}
    ]},
    {"smiles": "Nc1nc(N2CCC(C(=O)c3ccccc3)CC2)c2cc(-c3ccc(F)cc3)sc2n1", "note": "[Example 348, (1-(2-amino-6-(4-fluorophenyl)thieno[2,3-d]pyrimidin-4-yl)piperidin-4-yl)(phenyl)methanone]", "values": [
      {"measurement": "IC50", "setting": "[1]", "result": 8270, "unit": "nM"}
    ]},
    {"smiles": "Cc1nc2c(N3CCN(C(=O)COc4ccc(Cl)cc4)CC3)nc(N)nc2[nH]1", "note": "[Example 400, 1-(4-(2-amino-8-methyl-9H-purin-6-yl)piperazin-1-yl)-2-(4-chlorophenoxy)ethanone]", "values": [
      {"measurement": "IC50", "setting": "[1]", "result": 450, "unit": "nM"}
    ]},
    {"smiles": "COCCN1CCN(c2nc(N)nc3oc(-c4ccc(F)cc4)nc23)CC1", "note": "[Example 192, 5-amino-2-(4-fluorophenyl)-7-[4-(2-methoxyethyl)-piperazin-1-yl]-oxazolo[5,4-d]pyrimidine]", "values": [
      {"measurement": "IC50", "setting": "[1]", "result": "> 10000", "unit": "nM"}
    ]},
    {"smiles": "Nc1nc(N2CCCN(C(=O)COc3ccc(Cl)cc3)CC2)c2nc(CCc3ccc(F)cc3)sc2n1", "note": "[Example 138, 5-amino-2-[2-(4-fluorophenyl)ethyl]-7-(4-[2-(4-chlorophenoxy)acetyl]homopiperazin-1-yl)-thiazolo[5,4-d]pyrimidine]", "values": [
      {"measurement": "IC50", "setting": "[1]", "result": 2100, "unit": "nM"}
    ]},
    {"smiles": "Nc1nc(N2CCN(C(=O)COc3ccc(Br)cc3)CC2)c2cc(-c3ccccc3)sc2n1", "note": "[Example 372, 1-(4-(2-amino-6-phenylthieno[2,3-d]pyrimidin-4-yl)piperazin-1-yl)-2-(4-bromophenoxy)ethanone]", "values": [
      {"measurement": "IC50", "setting": "[1]", "result": 320, "unit": "nM"}
    ]},
    {"smiles": "Nc1nc(N2CCN(C(=O)COc3ccc(Cl)cc3)CC2)c2nc(SC3CCCC3)[nH]c2n1", "note": "[Example 429, 1-(4-(2-amino-8-(cyclopentylthio)-9H-purin-6-yl)piperazin-1-yl)-2-(4-chlorophenoxy)ethanone]", "values": [
      {"measurement": "IC50", "setting": "[1]", "result": 510, "unit": "nM"}
    ]},
    {"smiles": "Nc1nc(N2CC[C@@H](NC(=O)COc3ccc(Cl)cc3)C2)c2nc(CCc3ccc(F)cc3)sc2n1", "note": "[Example 143, 5-amino-2-[2-(4-fluorophenyl)ethyl]-7-(3-(R)-[2-(4-chlorophenoxy)-acetylamino]pyrrolidin-1-yl)-thiazolo[5,4-d]pyrimidine]", "values": [
      {"measurement": "IC50", "setting": "[1]", "result": "> 10000", "unit": "nM"}
    ]},
    {"smiles": "Nc1nc(N2CCN(Cc3ccccc3)CC2)c2nc(-c3ccc(F)cc3)sc2n1", "note": "[Example 39, 7-(4-benzylpiperazin-1-yl)-2-(4-fluorophenyl)thiazolo[5,4-d]pyrimidin-5-amine]", "values": [
      {"measurement": "IC50", "setting": "[1]", "result": "> 10000", "unit": "nM"}
    ]},
    {"smiles": "Nc1nc(N2CCN(c3nccs3)CC2)c2nc(-c3ccc(F)cc3)[nH]c2n1", "note": "[Example 409, 8-(4-fluorophenyl)-6-(4-(thiazol-2-yl)piperazin-1-yl)-9H-purin-2-amine]", "values": [
      {"measurement": "IC50", "setting": "[1]", "result": 7470, "unit": "nM"}
    ]}
  ]
}
